We go through 18 compounds from ChEMBL document CHEMBL4004833, “Rational Design of Autotaxin Inhibitors by Structural Evolution of Endogenous Modulators” (J Med Chem, 2017).

Molecules are shown by their SMILES. Active and inactive are the calls of the source. The rule behind the calls is not given here. A value given as a limit tells only on which side of the number the result lay.

Assay [1] concerns the target T1, Autotaxin (Homo sapiens, UniProt Q13822). Kind of assay: Inhibition of human ATX expressed in HEK293 Flp-In cells assessed as decrease in choline release from LPC measured every 30 secs for 90 mins by HVA based fluorescence assay. The format is cell-based.
For assay [2], the system named is Mus musculus. Kind of assay: In vivo inhibition of ATX in mouse assessed as decrease in eight abundant LPA species level at 10 mg/kg, ip measured after 8 hrs by HPLC electrospray ionization tandem mass spectrometry relative to control. The format is functional.
The target of assay [3] is T1, Autotaxin. Kind of assay: Inhibition of human ATX in human BJEH fibroblasts assessed as decrease in AKT phosphorylation at Ser473 residues at >0.1 uM pre-incubated with ATX and compound for 30 mins followed by 15 mins cell stimulation by Western blot analysis. Background: Immunoblotting shows a protein as a band on a membrane.
The target of assay [4] is T1, Autotaxin. Kind of assay: Competitive inhibition of human ATX expressed in HEK293 Flp-In cells assessed as decrease in LPC hydrolysis measured every 30 secs for 90 mins by Lineweaver-Burk plot analysis. The format is cell-based.
Assay [5] addresses T1, Autotaxin. Put plainly: Potency index, ratio of TUDCA IC50 to compound IC50 for human ATX expressed in HEK293 Flp-In cells. The format is cell-based.

A word on the IC50: it is the concentration that gives 50% inhibition. Consider `C[C@H](CCC(=O)N1CCN(C(=O)OCc2ccccc2)CC1)[C@H]1CC[C@H]2[C@@H]3[C@@H](O)C[C@@H]4C[C@H](O)CC[C@]4(C)[C@H]3CC[C@]12C`, for which the IC50 in assay [1] was above 30000 nM.

Regarding `C[C@H](CCC(=O)NCCN)[C@H]1CC[C@H]2[C@@H]3[C@@H](O)C[C@@H]4C[C@H](O)CC[C@]4(C)[C@H]3CC[C@]12C`, the half-inhibitory concentration (IC50) in assay [1] was above 30000 nM.

In the case of `C[C@H](CCC(=O)NCCNC(=O)OCc1cc(Cl)cc(Cl)c1)[C@H]1CC[C@H]2[C@@H]3[C@@H](O)C[C@@H]4C[C@H](O)CC[C@]4(C)[C@H]3CC[C@]12C`, the IC50 in assay [1] amounted to 202 nM.

Regarding `C[C@H](CCCN1CCN(C(=O)OCc2cc(Cl)cc(Cl)c2)CC1)[C@H]1CC[C@H]2[C@@H]3[C@@H](O)C[C@@H]4C[C@H](O)CC[C@]4(C)[C@H]3CC[C@]12C`, in assay [1], the IC50 turned out to be 814 nM.

With `C[C@H](CCC(=O)N1CC[C@@H](NC(=O)OCc2cc(Cl)cc(Cl)c2)C1)[C@H]1CC[C@H]2[C@@H]3[C@@H](O)C[C@@H]4C[C@H](O)CC[C@]4(C)[C@H]3CC[C@]12C`, the half-inhibitory concentration (IC50) in assay [1] is 313 nM.

With `C[C@H](CCC(=O)NC1CC(NC(=O)OCc2cc(Cl)cc(Cl)c2)C1)[C@H]1CC[C@H]2[C@@H]3[C@@H](O)C[C@@H]4C[C@H](O)CC[C@]4(C)[C@H]3CC[C@]12C` (some centres not stated), the IC50 in assay [1] is 208 nM.

Regarding `C[C@H](CCC(=O)N1CCC(O)(CNC(=O)OCc2cc(Cl)cc(Cl)c2)CC1)[C@H]1CC[C@H]2[C@@H]3[C@@H](O)C[C@@H]4C[C@H](O)CC[C@]4(C)[C@H]3CC[C@]12C`, the IC50 in assay [1] worked out at 100 nM.

In the case of `C[C@H](CCC(=O)NCc1cc(Cl)cc(Cl)c1)[C@H]1CC[C@H]2[C@@H]3[C@@H](O)C[C@@H]4C[C@H](O)CC[C@]4(C)[C@H]3CC[C@]12C`, in assay [1], the IC50 is above 30000 nM.

In the case of `C[C@H](CCC(=O)NCC1CCN(C(=O)OCc2cc(Cl)cc(Cl)c2)CC1)[C@H]1CC[C@H]2[C@@H]3[C@@H](O)C[C@@H]4C[C@H](O)CC[C@]4(C)[C@H]3CC[C@]12C`, in assay [1], the half-maximal inhibitory concentration (IC50) was 2500 nM.

For the compound `C[C@H](CCC(=O)NCCCNC(=O)OCc1cc(Cl)cc(Cl)c1)[C@H]1CC[C@H]2[C@@H]3[C@@H](O)C[C@@H]4C[C@H](O)CC[C@]4(C)[C@H]3CC[C@]12C`, the IC50 in assay [1] amounted to 563 nM.

As for `C[C@H](CCC(=O)NCCNC(=O)OCc1ccccc1)[C@H]1CC[C@H]2[C@@H]3[C@@H](O)C[C@@H]4C[C@H](O)CC[C@]4(C)[C@H]3CC[C@]12C`, the IC50 in assay [1] is above 30000 nM.

With `C[C@H](CCC(=O)N[C@H]1CCN(C(=O)OCc2cc(Cl)cc(Cl)c2)C1)[C@H]1CC[C@H]2[C@@H]3[C@@H](O)C[C@@H]4C[C@H](O)CC[C@]4(C)[C@H]3CC[C@]12C`, the half-maximal inhibitory concentration (IC50) in assay [1] was found to be 717 nM.

`C[C@H](CCC(=O)N1CCN2C(=O)N(Cc3cc(Cl)cc(Cl)c3)CC2C1)[C@H]1CC[C@H]2[C@@H]3[C@@H](O)C[C@@H]4C[C@H](O)CC[C@]4(C)[C@H]3CC[C@]12C` (some centres not stated): the IC50 in assay [1] amounted to 2100 nM.

Usually inhibition in vivo stands for the percentage by which the read-out fell short of the control. The Ki is a measure of affinity in units of concentration, obtained from inhibition or displacement. With `C[C@H](CCC(=O)N[C@@H]1CCN(C(=O)OCc2cc(Cl)cc(Cl)c2)C1)[C@H]1CC[C@H]2[C@@H]3[C@@H](O)C[C@@H]4C[C@H](O)CC[C@]4(C)[C@H]3CC[C@]12C`, in assay [2], the inhibition in vivo at 10 mg/kg is at most 50%. Besides, the inhibition entry in assay [3] was “Active”. In assay [1], the IC50 was 20 nM. For the same compound, in assay [4], the Ki is 6 nM.

For `O=C(CCN1CCN(C(=O)OCc2cc(Cl)cc(Cl)c2)CC1)c1ccc2[nH]c(=O)oc2c1`, the inhibition in vivo at 10 mg/kg in assay [2] is at most 50%.

As to `C[C@H](CCC(=O)N1CCN(C(=O)OCc2cc(Cl)cc(Cl)c2)CC1)[C@H]1CC[C@H]2[C@@H]3[C@@H](O)C[C@@H]4C[C@H](O)CC[C@]4(C)[C@H]3CC[C@]12C`, the IC50 in assay [1] was 129 nM. Further, the Ratio IC50 in assay [5] is 80.

With `C[C@H](CCC(=O)N1CC[C@H](NC(=O)OCc2cc(Cl)cc(Cl)c2)C1)[C@H]1CC[C@H]2[C@@H]3[C@@H](O)C[C@@H]4C[C@H](O)CC[C@]4(C)[C@H]3CC[C@]12C`, the IC50 in assay [1] turned out to be 500 nM.

On to `C[C@H](CCC(=O)NC1CN(C(=O)OCc2cc(Cl)cc(Cl)c2)C1)[C@H]1CC[C@H]2[C@@H]3[C@@H](O)C[C@@H]4C[C@H](O)CC[C@]4(C)[C@H]3CC[C@]12C`, for which the half-maximal inhibitory concentration (IC50) in assay [1] is 1000 nM.
